Results on one molecule are retold here after patent US20050203065A1, “Method of treating ischemia reperfusion injury using adenosine receptor antagonists” (priority 2002, published 2005).

The target in assay [1] is T1, human A2B adenosine receptors (Homo sapiens, UniProt P29275).
T1 sequence (P29275 1-332): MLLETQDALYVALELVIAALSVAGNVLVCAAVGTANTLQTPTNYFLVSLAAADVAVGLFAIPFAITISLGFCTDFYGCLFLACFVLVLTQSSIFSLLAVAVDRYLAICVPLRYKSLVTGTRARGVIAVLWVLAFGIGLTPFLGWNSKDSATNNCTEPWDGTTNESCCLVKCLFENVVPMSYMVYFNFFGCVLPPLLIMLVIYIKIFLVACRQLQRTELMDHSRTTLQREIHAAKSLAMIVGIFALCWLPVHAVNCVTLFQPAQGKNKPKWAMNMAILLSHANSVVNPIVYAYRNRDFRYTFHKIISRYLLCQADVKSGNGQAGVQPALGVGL
As to the kind of experiment: Radioligand competitive binding, human A2b receptor. Set-up: expressed in transfected cells; host or cells: HEK-293. Conditions: HEK 293 membranes. How it is done:
(§1) Binding assays were terminated by filtration.
(§2) Membranes (40-70 μg membrane protein), radioligands, and varying concentrations of competing ligands were incubated in triplicate in 0.1 ml buffer HE plus 2 units/mL adenosine deaminase for 2.5 hours at 21° C. The radioligands used for competitive binding assays were: [^3H]-8-cyclopentyl-1,3-dipropyxanthine ([^3H]-DPCPX) (NEN, Boston, Mass.) for A1 and A2b adenosine receptors, [^3H]-4-(2-[7-amino-2-(furyl)(1,2,4)triazole(2,3-a)(1,3,5)triazin-5-ylaminoethyly)phenol ([^3H] ZM241385) for A2a adenosine receptors (Tocris, Bristol, UK), and [^125Iodine]-labeled N6-(4-aminobenzyl)-9-(5-(methylcarbonyl)-β-D-ribofuranosyl) adenine ([^125I]-AB-MECA) or [^3H]-R-N^6-phenylisopropyladenosine (H^3R]-R-PIA) for A3 adenosine receptors (both from NEN, Boston, Mass.). Nonspecific binding was measured in the presence of 10 μM 5′N ethylcarboxamidoadenosine (NECA, from RBI-Sigma, Natick, Mass.) for A1 and A2b receptors, or 10 μM xanthine amino congener (XAC, from RBI-Sigma, Natick, Mass.) for A2a receptors. Binding assays were terminated by filtration over Whatman GF/C glass fiber filters using a BRANDEL cell harvester (Gaithersburg, Md.).

The target of assay [2] is T2, recombinant canine A1 adenosine receptors (Canis lupus familiaris, UniProt P11616).
T2 construct: expressed in transfected cells
T2 sequence (P11616 1-326): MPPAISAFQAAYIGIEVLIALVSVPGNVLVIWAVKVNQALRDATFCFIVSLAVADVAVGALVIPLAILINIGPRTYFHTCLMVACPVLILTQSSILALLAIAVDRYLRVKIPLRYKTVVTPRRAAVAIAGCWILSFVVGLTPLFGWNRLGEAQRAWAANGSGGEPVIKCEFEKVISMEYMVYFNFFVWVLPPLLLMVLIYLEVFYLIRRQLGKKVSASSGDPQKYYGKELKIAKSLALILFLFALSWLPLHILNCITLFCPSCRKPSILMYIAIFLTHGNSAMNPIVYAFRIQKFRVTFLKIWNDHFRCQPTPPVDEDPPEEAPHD
The assay can be described thus: Radioligand competition binding, canine A1 receptor (3H-CPX), transfected HEK 293 membranes. How it is done: as §2
On the technique in general: Loss of bound radioactivity is the signal in a displacement assay; it reports binding, not function.

Assay [3] concerns open-chest, barbital-anesthetized dogs. As to the kind of experiment: Protocol I (pretreatment): 60 minutes of coronary artery occlusion and 3 hours of reperfusion in dogs.
Procedure: The studies were performed in open-chest, barbital-anesthetized dogs instrumented to measure heart rate, blood pressure, left ventricular pressure, and regional myocardial blood flow (radioactive microspheres). A mechanical occluder was placed around a proximal portion of the left anterior descending coronary artery to produce ischemia and reperfusion. At the end of the experiments, infarct size was determined-by histochemical staining (patent blue dye and triphenyltetrazolium) and expressed as a percentage of the region at risk or as a percentage of the entire left ventricle.
In the pretreatment protocol (see FIG. 1, protocol I), the dogs were subjected to 60 minutes of coronary artery occlusion and 3 hours or reperfusion after which the hearts were removed and infarct size was assessed. […] All of the antagonists were administered at a dose of 1 mg/kg as an i.v. bolus followed by and infusion of 10 μg/kg/min continued until immediately before reperfusion (70 minutes total).
Assay [4] shares this test system. As to the kind of experiment: Protocol II (preconditioning): four 5-minute occlusion/reperfusion cycles before 60-minute occlusion and 3 hours reperfusion in dogs. In kind it is in vivo, dog. How it is done:
Preconditioning was elicited by four 5-minute occlusion/5-minute reperfusion cycles produced 10 minutes before the 60-minute occlusion.

Assay [5] addresses T3, recombinant human A2a adenosine receptors (Homo sapiens, UniProt P29274).
T3 construct: purchased PerkinElmer (Boston, Mass.); host or cells: HEK 293
As to the kind of experiment: Radioligand competitive binding, human A2a receptor ([3H]-ZM241385). How it is done: as §1, §2

Assay [6] deals with T4, recombinant human A3 adenosine receptors (Homo sapiens, UniProt P0DMS8).
T4 construct: expressed in transfected cells; host or cells: HEK 293
T4 sequence (P0DMS8 1-318): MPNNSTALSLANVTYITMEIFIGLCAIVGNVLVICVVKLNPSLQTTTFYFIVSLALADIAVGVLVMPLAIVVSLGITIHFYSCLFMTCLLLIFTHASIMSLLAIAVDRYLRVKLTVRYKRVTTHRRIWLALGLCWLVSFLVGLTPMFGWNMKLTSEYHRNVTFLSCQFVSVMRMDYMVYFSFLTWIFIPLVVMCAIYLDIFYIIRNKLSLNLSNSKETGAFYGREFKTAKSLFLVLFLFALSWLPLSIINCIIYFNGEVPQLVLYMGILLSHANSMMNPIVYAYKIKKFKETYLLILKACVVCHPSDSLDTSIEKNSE
As to the kind of experiment: Radioligand binding, human A3 receptor ([125I]-AB-MECA), incl. one-point binding at 10 μM. The conditions noted are these: read-out: Percent (%) Inhibition at 10 μM Antagonist, A3.

T3 sequence (P29274 whole entry): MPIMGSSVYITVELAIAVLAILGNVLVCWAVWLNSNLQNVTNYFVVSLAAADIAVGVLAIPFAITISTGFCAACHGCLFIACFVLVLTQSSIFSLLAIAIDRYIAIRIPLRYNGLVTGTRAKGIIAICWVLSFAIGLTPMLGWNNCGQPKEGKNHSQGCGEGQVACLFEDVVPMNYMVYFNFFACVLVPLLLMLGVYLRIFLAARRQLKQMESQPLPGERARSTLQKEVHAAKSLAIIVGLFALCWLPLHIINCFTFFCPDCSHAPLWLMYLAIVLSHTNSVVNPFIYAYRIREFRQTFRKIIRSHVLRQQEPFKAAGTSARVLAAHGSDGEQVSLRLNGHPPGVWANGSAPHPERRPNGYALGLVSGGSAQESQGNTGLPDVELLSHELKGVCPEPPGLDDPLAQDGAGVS

What is called Ki is the equilibrium dissociation constant of an inhibitor or competing ligand from its target. Usually inhibition stands for the change of the read-out against control, counted positive when it falls. On to `CCCn1c(=O)c2[nH]c(C34CCC(CCC(=O)O)(CC3)CC4)nc2n(CCC)c1=O` [BG 9928, 3-[4-(2,6-dioxo-1,3-dipropyl-2,3,6,7-tetrahydro-1H-purin-8-yl)-bicyclo[2.2.2]oct-1-yl]-propionic acid], for which the Ki stood at 0.0885 ± 0.021 µM in assay [1], 0.0289 ± 0.0041 µM in assay [2] and 4.06 µM in assay [5]. In addition, the “Relationship between infarct size and transmural collateral blood flow compared to control group” value in assay [3] is “shifted downward”. In addition, the “Infarct size (percentage of risk region or of left ventricle) compared with control, in words” value in assay [3] (1 mg/kg i.v. bolus + 10 μg/kg/min from 10 minutes before occlusion, 1 mg/kg) is on record as “significantly smaller”. Besides, the Infarct size reduction in assay [3] (1 mg/kg i.v. bolus + 10 μg/kg/min from 10 minutes before occlusion, vs control) was 49%. The “Addition to the protective effect of ischemic preconditioning” value in assay [4] (Protocol II) was “added to the protective effect”. Besides, in assay [4] (Protocol II (preconditioning)), the “Relationship between infarct size and collateral blood flow compared to preconditioned control” value is “shifted downward further”. Further, in assay [4] (Protocol II, 1 mg/kg i.v. bolus + 10 μg/kg/min), the “Effect on the protective effects of ischemic preconditioning” value is recorded as “did not block”. In assay [6], the inhibition at 10 µM was determined as 30%.
